Laboratory results: US5512549A, “Glucagon-like insulinotropic peptide analogs, compositions, and methods of use” (Eli Lilly and Company, priority 1994, dated 1996)

Assays:
[1] = test system: beagles; experiment: Dog S.C. Hyperglycemic (150 mg/dl) Clamp Test; type: in vivo; details: S.C. 10 μg/kg
Method: (§1) a) Hyperglycemic Clamp Studies
(§2) Experiments were conducted in overnight-fasted, conscious, adult (1-2 years of age) male and female beagles weighing 8-15 kg. At least ten days prior to the study, animals were anesthetized with isoflurane, and a cut-down was made in the left or right inguinal region. Silastic catheters were inserted into the femoral artery and the proximal caudal femoral vein and secured with 4-0 silk suture. The free ends of the catheters were passed subcutaneously to the back using a trocar needle. The catheters were then filled with a glycerol/heparin solution (3:1, v/v; final heparin concentration of 250 KIU/ml), and the free ends were knotted and placed in a subcutaneous pocket to allow complete closure of the skin. Keflex® was administered both pre-operatively (20 mg/kg, IV and 20 mg/kg, I.M.) and post-operatively (250 mg, p.o. once daily for seven days) to prevent infections. Torbugesic (1.5 mg/kg, I.M.) was administered post-operativelyto control pain.
(§3) Blood was drawn just prior to the study day to determine the health of the animal. Only animals with hematocrits above 38% and leukocyte counts below 16,000/mm^3 were used.
(§4) The afternoon before the experiment, the free ends of the catheters were exteriorized from the subcutaneous pocket through a small incision made under local anesthesia (2% lidocaine), and the dog was fitted with a tether system jacket and collar assembly.
(§5) The morning of the experiment, the contents of the catheters were aspirated, the catheters were flushed with saline, and extension lines (protected by a stainless steel tether) were attached to the catheters. On mornings of IV injection experiments, an over-the-needle, teflon catheter was inserted percutaneously into a cephalic vein in preparation for the administration of an IV bolus of test substance. The dog was placed in a metabolic cage, and the catheter extension lines and tether were attached to a swivel system to allow the dog to move freely about the cage. At this time (-60 minutes), an exogenous infusion of glucose (50% w/v in water) was begun through the chronic venous catheter. Glucose was infused in a descending stepwise fashion over the first six minutes of the study to rapidly raise the plasma glucose concentration to 150 mg/dl. Plasma glucose concentrations were determined every 2.5 to 7.5 minutes throughout the remainder of the study, and the glucose infusion rate was adjusted appropriately to maintain the plasma glucose concentration at 150 mg/dl.
(§6) Sixty minutes after the start of the glucose infusion (time 0), test substance was administered either intravenously (1.0, 2.9, 5.0 or 10.0 μg/kg; dose dissolved in 2 ml of saline containing 0.3% dog albumin, w/v) through the previously inserted teflon catheter or subcutaneously (10 μg/kg; 150 μM in phosphate buffered saline) in the dorsal aspect of the neck.
(§7) Arterial blood samples (3.5 ml) were taken at -30, -15, 0, 2.5, 5, 7.5, 10, 12.5, 15, 20, 30, 45, 60, 75, 90, 105 and 120 minutes during the IV studies and at -30, -15, 0, 3, 6, 9, 12, 15, 20, 30, 45, 60, 75, 90, 105 and 120 minutes during the SC studies. Samples were collected in vacuum blood collection tubes containing disodium EDTA and immediately placed on ice. To prevent proteolytic cleavage of GLP-1(7-37) in the plasma samples, 1.5 ml of the EDTA containing blood were transferred to a polypropylene tube containing 40 μl of aprotinin (10,000 KIU/ml) and mixed well. The samples were centrifuged, and the resulting plasma was transferred to polypropylene test tubes and stored on ice for the duration of the study.
(§8) At the conclusion of the experiment, the animal was anesthetized (isoflurane); the catheters were flushed with fresh saline and filled with the glycerol/heparin mixture; the free ends of the catheters were knotted and placed subcutaneously as described earlier; and antibiotic was administered (300 mg Keflex®, I.M.). […]

[2] = test system: Sprague Dawley or Zucker Diabetic Fatty rats; experiment: Rat IV Glucose (1 g/kg) Tolerance Test; type: in vivo; details: for Insulin Change AUC: 0-15 min
Method: a) Glucose Tolerance Tests
Experiments were conducted in overnight-fasted, conscious, male Sprague Dawley (Charles River) or Zucker Diabetic Fatty (Genetic Models, Inc.) rats weighing approximately 250 (Sprague Dawley rats) or 300 (Zucker Diabetic Fatty rats) grams. Four to five days prior the study, rats were anesthetized with isoflurane, and a polyethylene (PE50) catheter was inserted into the right jugular vein. The catheter was secured with a wound clip, filled with saline containing heparin (2% sodium heparin), and closed with a small stainless steel plug.
After a sixteen-hour fast, twelve chronically cannulated rats were separated into four groups of three rats per group. 0.4 ml of blood was taken from the tail vein, collected into a microtainer tube containing lithium heparin, and immediately placed on ice (zero minute sample). A glucose bolus (1.0 g/kg; 50% glucose (w/v) in water) was administered via the indwelling jugular cannula, and the cannula was rinsed with 200 μl of saline. Twenty seconds later a bolus of test substance 100 μl/100 g body weight of either vehicle (saline containing 0.3% (w/v) bovine serum albumin) or vehicle containing analog! was administered through the jugular cannula, and the cannula was rinsed as before. Rats were bled from the tail again at 2, 5, 10, 20 and 30 minutes after the administration of the glucose bolus, and the samples were treated as described above. At the end of the experiment, blood samples were centrifuged, and the plasma was collected.
Plasma glucose concentrations were determined the day of the experiment using a coupled hexokinase procedure in a clinical chemistry analyzer. Plasma for insulin determinations were diluted with zero calibrator and frozen at -20° C. until time for analysis. Insulin concentrations were determined using a commercial radioimmunoassay kit with rat insulin as the standard.
Insulin change (the change in insulin from the baseline value) was calculated as the difference between the insulin concentration at time t and the insulin concentration at zero time. The area under the insulin change curve was calculated using the trapezoidal rule. Plasma glucose change (the increase in plasma glucose above the baseline value) was calculated as the difference between the plasma glucose concentration at time t and the plasma glucose concentration at zero time. The area under the plasma glucose change curve was calculated using the trapezoidal rule. Values are listed as the mean ± the standard error of the mean (SEM).

[3] = test system: beagles; experiment: Dog I.V. Hyperglycemic (150 mg/dl) Clamp Test; type: in vivo; details: I.V. 1.0 μg/kg
Method: as §1, §2, §3, §4, §5, §6, §7, §8

[4] = target: T1, rat GLP-1 receptor (Rattus norvegicus, UniProt P32301); experiment: cAMP Assay (in vitro receptor binding assay) on membrane preparation; type: biochemical; details: cAMP production, CHO membranes expressing rat GLP-1 receptor; mean ± spread
T1 construct: expressed in transfected cells; host or cells: CHO DXB-11 (Chinese hamster ovary) cells, used as a membrane preparation
T1 sequence (P32301 22-463): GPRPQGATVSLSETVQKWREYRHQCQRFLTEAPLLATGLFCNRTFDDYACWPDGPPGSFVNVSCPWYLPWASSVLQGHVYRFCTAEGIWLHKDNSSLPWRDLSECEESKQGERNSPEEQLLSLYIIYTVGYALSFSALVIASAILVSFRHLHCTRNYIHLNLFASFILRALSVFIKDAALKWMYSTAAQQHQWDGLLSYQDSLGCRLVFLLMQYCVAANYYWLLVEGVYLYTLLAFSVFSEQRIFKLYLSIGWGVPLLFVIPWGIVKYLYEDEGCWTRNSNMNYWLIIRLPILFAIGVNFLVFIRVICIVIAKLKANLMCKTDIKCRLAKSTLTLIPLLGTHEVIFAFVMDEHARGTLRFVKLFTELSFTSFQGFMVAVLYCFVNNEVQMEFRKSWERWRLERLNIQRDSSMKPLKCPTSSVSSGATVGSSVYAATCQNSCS
Method: A sample of the membrane preparation was preincubated with a test compound or a control compound in buffer (25 mM HEPES, 0.2% (w/v) BSA, pH 7.6) at 32° C. for 10 minutes. Reaction buffer (final concentration: 25 mM HEPES, 0.2% (w/v) BSA, 2.6 mM Mg, 0.8 mMATP, 0.1 mM GTP, 5 mM creatine phosphate, creatine kinase 50 U/ml, 0.2 mM IBMX, pH 7.6) was added and incubated for an additional 30 minutes. Incubations were stopped by adding 10 mM EDTA.
Production of cAMP was assayed using a fluorescent tracer-immuno assay method. In brief, after the incubation was stopped, fluorescent tracer (cAMP-b phycoerythrin conjugate) was added followed by the addition of affinity purified anti-cAMP rabbit antiserum. After incubation at room temperature for 45 minutes, anti-rabbit IgG coated assay beads were added and incubated for an additional 15 minutes. Plates were then evacuated and read on a Pandex PFCIA reader.
Fluorescent intensity values were correlated to rate of cAMP production (pmol/min/mg).

[5] = 120 minute test period, mean ± SEM

“Arg^26 -Lys^34 -N^ε -octanoyl-GLP-1(8-37)OH [Arg^26-Lys^34-N^ε-octanoyl-GLP-1(8-37)OH]” was tested, and the “GIR Change AUC” value ([1]; 0-120 min, mean ± SEM) was 659 ± 182 mg/kg, the “Insulin Change AUC” value ([1]; 0-120 min, mean ± SEM) was 11 ± 26 ng·min/mL and the “Max Insulin Change” value [1, 5] was 0.6 ± 0.4 ng/mL. The “Duration of Insulin Effect” value ([1]; time average insulin change consistently >0.5 ng/ml) was “not active”.
With GLP-1(7-36)NH2 the “Insulin Change at 10 min” value ([2]; IV dose 0.2 mg/kg) was 1.8 ng/mL, the “Max Insulin Change” value ([2]; IV dose 0.2 mg/kg) was 4.0 ng/mL and the “Insulin Change AUC” value ([2]; IV dose 0.2 mg/kg) was 34 ± 4 ng·min/mL. The “Insulin Change at 10 min” value ([2]; IV dose 0.3 mg/kg) was 2.2 ng/mL, the “Max Insulin Change” value ([2]; IV dose 0.3 mg/kg) was 6.1 ng/mL and the “Insulin Change AUC” value ([2]; IV dose 0.3 mg/kg) was 50 ± 13 ng·min/mL. For the same substance, the “Insulin Change at 10 min” value ([2]; IV dose 0.4 mg/kg) was 3.8 ng/mL, the “Max Insulin Change” value ([2]; IV dose 0.4 mg/kg) was 7.7 ng/mL and the “Insulin Change AUC” value ([2]; IV dose 0.4 mg/kg) was 73 ± 14 ng·min/mL. The “Insulin Change at 10 min” value ([2]; IV dose 0.6 mg/kg) was 3.4 ng/mL, the “Max Insulin Change” value ([2]; IV dose 0.6 mg/kg) was 7.7 ng/mL and the “Insulin Change AUC” value ([2]; IV dose 0.6 mg/kg) was 67 ± 11 ng·min/mL. For the same substance, the “Insulin Change at 10 min” value ([2]; IV dose 0.8 mg/kg) was 4.1 ng/mL, the “Max Insulin Change” value ([2]; IV dose 0.8 mg/kg) was 11.3 ng/mL and the “Insulin Change AUC” value ([2]; IV dose 0.8 mg/kg) was 97 ± 25 ng·min/mL. For the same substance, the “Insulin Change at 10 min” value ([2]; IV dose 1.0 mg/kg) was 3.9 ng/mL, the “Max Insulin Change” value ([2]; IV dose 1.0 mg/kg) was 11.4 ng/mL and the “Insulin Change AUC” value ([2]; IV dose 1.0 mg/kg) was 89 ± 16 ng·min/mL. For the same substance, the “Insulin Change at 10 min” value ([2]; IV dose 2.0 mg/kg) was 4.9 ng/mL, the “Max Insulin Change” value ([2]; IV dose 2.0 mg/kg) was 11.7 ng/mL and the “GIR Change AUC” value ([3]; 0-60 min, mean ± SEM) was 414 ± 73 mg/kg. For the same substance, the “Insulin Change AUC” value ([3]; 0-60 min, mean ± SEM) was 32 ± 8 ng·min/mL, the “Max Insulin Change” value [3, 5] was 3.4 ± 0.6 ng/mL and the “Duration of Insulin Effect” value ([3]; time average insulin change consistently ≥0.5 ng/ml) was 2.5 min.
With “N- Imidazole-α,α-dimethyl-acetyl!GLP-1 (8-37)OH [α,α-imidazoacetyl-GLP-1(8-37)OH]” the “% Relative Potency” value [4] was 108.2 ± 22.4%.
